Reference: ChEMBL document CHEMBL5537164, “Discovery of Potent, Orally Bioavailable, Tricyclic NLRP3 Inhibitors” (J Med Chem, 2024)
≈ marks a conversion by molar mass, not a printed value.

Assays:
[1] = Volume of distribution at steady state in C57BL/6 mouse at 3 mg/kg, po or 1 mg/kg, iv measured after 24 hrs by LC-MS/MS analysis; format: ADME, organism-based; details: in vivo
[2] = Half-life in C57BL/6 mouse at 3 mg/kg, po or 1 mg/kg, iv measured after 24 hrs by LC-MS/MS analysis; format: ADME, organism-based; details: in vivo
[3] = Oral bioavailability in C57BL/6 mouse at 3 mg/kg measured after 24 hrs by LC-MS/MS analysis; format: ADME, organism-based; details: in vivo
[4] = Volume of distribution at steady state in Sprague-Dawley rat at 10 mg/kg, po or 1 mg/kg, iv measured after 24 hrs by LC-MS/MS analysis; format: ADME, organism-based; details: in vivo
[5] = Half-life in Sprague-Dawley rat at 10 mg/kg, po or 1 mg/kg, iv measured after 24 hrs by LC-MS/MS analysis; format: ADME, organism-based; details: in vivo
[6] = Dose normalized AUC in Sprague-Dawley rat at 10 mg/kg, po measured after 24 hrs by LC-MS/MS analysis; format: ADME, organism-based; details: in vivo
[7] = Oral bioavailability in Sprague-Dawley rat at 10 mg/kg measured after 24 hrs by LC-MS/MS analysis; format: ADME, organism-based; details: in vivo
[8] = Volume of distribution at steady state in Beagle dog at 1 mg/kg, po or 0.1 mg/kg, iv measured after 24 hrs by LC-MS/MS analysis; format: ADME, organism-based, Canis lupus familiaris; details: in vivo
[9] = Dose normalized AUC in Beagle dog at 1 mg/kg, po measured after 24 hrs by LC-MS/MS analysis; format: ADME, organism-based, Canis lupus familiaris; details: in vivo
[10] = Oral bioavailability in Beagle dog at 1 mg/kg measured after 24 hrs by LC-MS/MS analysis; format: ADME, organism-based, Canis lupus familiaris; details: in vivo
[11] = Equilibrium solubility of compound in DMSO at pH 6.8 by shake flask method; format: physicochemical
[12] = Lipophilicity, logD of compound at pH 7.4; format: physicochemical; details: buffer
[13] = Metabolic stability in mouse liver microsomes assessed as intrinsic clearance; format: ADME, Microsome; details: read-out: CLH
[14] = Clearance in C57BL/6 mouse at 1 mg/kg, iv measured after 24 hrs by LC-MS/MS analysis; format: ADME, organism-based; details: in vivo
[15] = Oral bioavailability in C57BL/6 mouse measured after 24 hrs by LC-MS/MS analysis; format: ADME, organism-based; details: in vivo
[16] = target: Nuclear factor NF-kappa-B complex (Homo sapiens, UniProt P19838+Q00653+Q04206); test: Inhibition of NF-kappaB in PMA-differentiated human THP-1 cells assessed as reduction in TNF-alpha release preincubated with compound for 1 hrs followed by Pam3CSK4 stimulation and measured after 3 hrs by HTRF assay; format: cell-based
[17] = target: Voltage-gated inwardly rectifying potassium channel KCNH2 (Homo sapiens, UniProt Q12809); test: Displacement of [3H]-dofetilide from human ERG; format: toxicity
[18] = In vivo inhibition of NLRP3 in LPS/ATP-induced C57BL/6 mouse model of acute peritonitis assessed as reduction in IL-1beta level at 100 mg/kg, po preadministered with compound for 1 hrs followed by LPS stimulation for 2 hrs and measured 15 mins after ATP addition by ELISA relative to control; format: functional; details: time 3.25 hrs
[19] = In vivo inhibition of NLRP3 in LPS/ATP-induced C57BL/6 mouse model of acute peritonitis assessed as reduction in IL-1beta level at 10 mg/kg, po preadministered with compound for 1 hrs followed by LPS stimulation for 2 hrs and measured 15 mins after ATP addition by ELISA relative to control; format: functional; details: time 3.25 hrs
[20] = Drug concentration in blood of C57BL/6 mouse model of acute peritonitis at 100 mg/kg, po preadministered with compound for 1 hrs followed by LPS stimulation for 2 hrs and measured 15 mins after ATP addition by HPLC-MS/MS analysis; format: ADME, organism-based; details: whole blood, read-out: Ct
[21] = Drug concentration in blood of C57BL/6 mouse model of acute peritonitis at 30 mg/kg, po preadministered with compound for 1 hrs followed by LPS stimulation for 2 hrs and measured 15 mins after ATP addition by HPLC-MS/MS analysis; format: ADME, organism-based; details: whole blood, read-out: Ct
[22] = Drug concentration in blood of C57BL/6 mouse model of acute peritonitis at 10 mg/kg, po preadministered with compound for 1 hrs followed by LPS stimulation for 2 hrs and measured 15 mins after ATP addition by HPLC-MS/MS analysis; format: ADME, organism-based; details: whole blood, read-out: Ct
[23] = In vivo inhibition of NLRP3 in LPS/ATP-induced C57BL/6 mouse model of acute peritonitis assessed as reduction in IL-1beta level at 50 mg/kg, po preadministered with compound for 1 hrs followed by LPS stimulation for 2 hrs and measured 15 mins after ATP addition by ELISA relative to control; format: functional; details: time 3.25 hrs
[24] = Drug concentration in blood of C57BL/6 mouse model of acute peritonitis at 50 mg/kg, po preadministered with compound for 1 hrs followed by LPS stimulation for 2 hrs and measured 15 mins after ATP addition by HPLC-MS/MS analysis; format: ADME, organism-based; details: whole blood, read-out: Ct
[25] = Drug concentration in brain of C57BL/6 mouse model of acute peritonitis at 50 mg/kg, po preadministered with compound for 1 hrs followed by LPS stimulation for 2 hrs and measured 15 mins after ATP addition by HPLC-MS/MS analysis; format: ADME, organism-based; details: read-out: Ct
[26] = Thermodynamic solubility of compound at pH 6.8; format: physicochemical; details: buffer, read-out: Therm_solubility
Cytochrome P450 3A4 = Cytochrome P450 3A4 (Homo sapiens, UniProt P08684); test: Inhibition of CYP3A4 (unknown origin); format: ADME
Cytochrome P450 2D6 = Cytochrome P450 2D6 (Homo sapiens, UniProt P10635); test: Inhibition of CYP2D6 (unknown origin); format: ADME
Cytochrome P450 2C9 = Cytochrome P450 2C9 (Homo sapiens, UniProt P11712); test: Inhibition of CYP2C9 (unknown origin); format: ADME
[27] = target: Synaptic vesicular amine transporter (Homo sapiens, UniProt Q05940); test: Inhibition of VMAT-2 (unknown origin)
[28] = Drug metabolism in rat liver microsomes assessed as N-demethylation of piperidine ring mediated metabolite formation; format: ADME, Microsome
[29] = Drug metabolism in dog liver microsomes assessed as N-demethylation of piperidine ring mediated metabolite formation; format: ADME, Canis lupus familiaris, Microsome
[30] = Drug metabolism in rat liver microsome assessed as thiophene oxidation mediated metabolite formation; format: ADME; details: microsomes
[31] = Drug metabolism in dog liver microsome assessed as thiophene oxidation mediated metabolite formation; format: ADME, Canis lupus familiaris; details: microsomes
[32] = Drug metabolism in human liver microsome assessed as thiophene oxidation mediated metabolite formation; format: ADME; details: microsomes
[33] = Clearance in mouse liver microsomes; format: ADME, Microsome; details: read-out: CLH
[34] = Clearance in rat liver microsomes; format: ADME, Microsome; details: read-out: CLH
[35] = Clearance in dog liver microsomes; format: ADME, Canis lupus familiaris, Microsome; details: read-out: CLH
[36] = Clearance in human liver microsomes; format: ADME, Microsome; details: read-out: CLH
[37] = Protein binding in dog plasma; format: ADME, cell-free, Canis lupus familiaris; details: read-out: PPB (converted)
[38] = Protein binding in human plasma; format: ADME, cell-free; details: read-out: PPB (converted)
[39] = Clearance in Sprague-Dawley rat assessed as hepatic blood flow at 10 mg/kg, po or 1 mg/kg, iv measured after 24 hrs by LC-MS/MS analysis; format: ADME, organism-based, Liver; details: in vivo
[40] = Clearance in Beagle dog assessed as hepatic blood flow at 1 mg/kg, po or 0.1 mg/kg, iv measured after 24 hrs by LC-MS/MS analysis; format: ADME, organism-based, Canis lupus familiaris, Liver; details: in vivo

Synaptic vesicular amine transporter, sequence (Q05940 whole entry): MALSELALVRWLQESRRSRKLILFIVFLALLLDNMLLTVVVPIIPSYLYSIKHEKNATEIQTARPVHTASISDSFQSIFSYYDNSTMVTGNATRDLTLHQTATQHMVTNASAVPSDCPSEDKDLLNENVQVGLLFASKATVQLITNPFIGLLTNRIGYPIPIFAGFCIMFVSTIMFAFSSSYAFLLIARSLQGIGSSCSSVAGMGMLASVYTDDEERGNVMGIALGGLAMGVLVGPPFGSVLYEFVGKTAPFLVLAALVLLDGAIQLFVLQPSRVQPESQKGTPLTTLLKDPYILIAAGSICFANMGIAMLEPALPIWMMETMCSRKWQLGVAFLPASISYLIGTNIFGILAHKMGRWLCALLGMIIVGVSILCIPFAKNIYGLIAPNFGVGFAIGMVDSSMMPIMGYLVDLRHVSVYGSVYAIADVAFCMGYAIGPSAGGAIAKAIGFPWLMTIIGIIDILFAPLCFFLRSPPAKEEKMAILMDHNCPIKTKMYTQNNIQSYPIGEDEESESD
Voltage-gated inwardly rectifying potassium channel KCNH2, sequence (Q12809 whole entry): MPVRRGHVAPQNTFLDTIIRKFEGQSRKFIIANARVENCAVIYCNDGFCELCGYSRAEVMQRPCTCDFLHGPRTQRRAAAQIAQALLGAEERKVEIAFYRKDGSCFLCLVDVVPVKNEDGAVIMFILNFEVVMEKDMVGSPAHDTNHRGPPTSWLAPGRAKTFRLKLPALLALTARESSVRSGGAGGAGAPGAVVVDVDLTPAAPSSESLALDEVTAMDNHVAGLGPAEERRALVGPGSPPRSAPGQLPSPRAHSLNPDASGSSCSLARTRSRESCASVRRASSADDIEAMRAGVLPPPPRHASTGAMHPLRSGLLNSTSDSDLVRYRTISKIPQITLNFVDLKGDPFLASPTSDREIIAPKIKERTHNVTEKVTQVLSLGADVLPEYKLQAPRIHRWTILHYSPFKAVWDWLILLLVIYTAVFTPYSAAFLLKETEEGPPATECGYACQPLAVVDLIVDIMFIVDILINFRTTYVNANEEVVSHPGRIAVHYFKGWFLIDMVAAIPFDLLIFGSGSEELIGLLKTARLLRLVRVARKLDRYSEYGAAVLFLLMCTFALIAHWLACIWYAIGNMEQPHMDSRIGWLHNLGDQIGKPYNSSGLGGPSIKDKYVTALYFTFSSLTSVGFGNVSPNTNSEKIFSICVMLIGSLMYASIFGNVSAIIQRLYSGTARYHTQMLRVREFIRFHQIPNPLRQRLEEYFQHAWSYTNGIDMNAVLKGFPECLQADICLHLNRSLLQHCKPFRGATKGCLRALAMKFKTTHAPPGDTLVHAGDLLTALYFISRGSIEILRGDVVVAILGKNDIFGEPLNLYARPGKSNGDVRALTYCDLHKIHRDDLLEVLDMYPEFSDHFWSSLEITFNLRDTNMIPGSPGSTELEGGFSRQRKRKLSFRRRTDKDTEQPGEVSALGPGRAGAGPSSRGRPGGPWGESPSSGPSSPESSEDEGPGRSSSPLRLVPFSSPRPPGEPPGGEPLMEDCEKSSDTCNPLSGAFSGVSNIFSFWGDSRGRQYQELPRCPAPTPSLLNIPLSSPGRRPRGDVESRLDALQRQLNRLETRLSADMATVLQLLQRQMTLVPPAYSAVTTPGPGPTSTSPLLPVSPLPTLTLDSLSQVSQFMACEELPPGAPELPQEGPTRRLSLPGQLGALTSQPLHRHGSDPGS
Cytochrome P450 2D6, sequence (P10635 whole entry): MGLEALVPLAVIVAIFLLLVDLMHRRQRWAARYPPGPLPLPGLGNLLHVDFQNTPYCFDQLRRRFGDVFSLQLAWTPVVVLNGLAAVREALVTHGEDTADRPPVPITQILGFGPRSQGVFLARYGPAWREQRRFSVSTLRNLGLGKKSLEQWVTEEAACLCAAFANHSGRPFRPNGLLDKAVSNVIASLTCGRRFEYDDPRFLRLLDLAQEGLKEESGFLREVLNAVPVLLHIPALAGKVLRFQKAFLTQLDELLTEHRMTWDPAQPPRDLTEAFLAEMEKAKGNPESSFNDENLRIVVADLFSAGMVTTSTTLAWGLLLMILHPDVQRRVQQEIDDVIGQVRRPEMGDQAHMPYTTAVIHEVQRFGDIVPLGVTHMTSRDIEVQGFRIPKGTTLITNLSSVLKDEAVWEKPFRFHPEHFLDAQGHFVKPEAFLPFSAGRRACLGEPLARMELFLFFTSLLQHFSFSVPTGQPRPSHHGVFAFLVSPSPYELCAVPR
Cytochrome P450 2C9, sequence (P11712 whole entry): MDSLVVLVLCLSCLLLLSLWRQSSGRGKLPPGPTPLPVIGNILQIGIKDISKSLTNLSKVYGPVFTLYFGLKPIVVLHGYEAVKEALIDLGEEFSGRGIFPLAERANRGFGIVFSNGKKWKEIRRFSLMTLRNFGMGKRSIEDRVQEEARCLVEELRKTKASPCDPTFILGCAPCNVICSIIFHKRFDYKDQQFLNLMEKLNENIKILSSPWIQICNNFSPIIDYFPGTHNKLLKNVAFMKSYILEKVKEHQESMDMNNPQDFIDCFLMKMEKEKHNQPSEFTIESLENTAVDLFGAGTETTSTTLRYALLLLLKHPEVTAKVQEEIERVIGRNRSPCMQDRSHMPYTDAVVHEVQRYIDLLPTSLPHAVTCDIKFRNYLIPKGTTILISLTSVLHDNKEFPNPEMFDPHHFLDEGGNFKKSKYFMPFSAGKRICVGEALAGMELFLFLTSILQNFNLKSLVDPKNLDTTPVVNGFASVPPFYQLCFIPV
Cytochrome P450 3A4, sequence (P08684 whole entry): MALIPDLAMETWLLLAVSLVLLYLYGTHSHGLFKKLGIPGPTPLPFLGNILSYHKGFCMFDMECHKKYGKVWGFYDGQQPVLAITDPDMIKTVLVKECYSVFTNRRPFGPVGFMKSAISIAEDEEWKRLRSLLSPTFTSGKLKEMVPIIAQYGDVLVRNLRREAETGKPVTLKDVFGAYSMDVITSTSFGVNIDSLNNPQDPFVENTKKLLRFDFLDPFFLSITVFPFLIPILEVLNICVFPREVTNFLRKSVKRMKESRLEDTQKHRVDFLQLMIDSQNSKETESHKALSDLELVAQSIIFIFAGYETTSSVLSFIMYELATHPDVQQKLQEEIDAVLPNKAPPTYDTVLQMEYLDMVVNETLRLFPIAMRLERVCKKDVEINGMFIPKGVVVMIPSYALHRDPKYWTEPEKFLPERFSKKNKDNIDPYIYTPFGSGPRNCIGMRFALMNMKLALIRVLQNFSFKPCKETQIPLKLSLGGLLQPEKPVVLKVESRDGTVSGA
Nuclear factor NF-kappa-B complex, sequence (P19838 1-433 limits assumed): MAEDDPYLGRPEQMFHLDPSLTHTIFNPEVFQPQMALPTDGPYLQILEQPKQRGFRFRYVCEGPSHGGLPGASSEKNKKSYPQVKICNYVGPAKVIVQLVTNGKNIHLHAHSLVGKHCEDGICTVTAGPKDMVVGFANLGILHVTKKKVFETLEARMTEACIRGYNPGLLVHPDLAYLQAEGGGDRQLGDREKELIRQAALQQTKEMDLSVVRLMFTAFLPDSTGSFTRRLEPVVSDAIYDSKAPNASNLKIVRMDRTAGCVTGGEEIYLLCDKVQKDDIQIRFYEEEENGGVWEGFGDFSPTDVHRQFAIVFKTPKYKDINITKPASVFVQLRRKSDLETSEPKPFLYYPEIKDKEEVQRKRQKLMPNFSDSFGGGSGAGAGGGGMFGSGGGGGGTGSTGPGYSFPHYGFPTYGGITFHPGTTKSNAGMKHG
Nuclear factor NF-kappa-B complex, sequence (Q00653 1-454 limits assumed): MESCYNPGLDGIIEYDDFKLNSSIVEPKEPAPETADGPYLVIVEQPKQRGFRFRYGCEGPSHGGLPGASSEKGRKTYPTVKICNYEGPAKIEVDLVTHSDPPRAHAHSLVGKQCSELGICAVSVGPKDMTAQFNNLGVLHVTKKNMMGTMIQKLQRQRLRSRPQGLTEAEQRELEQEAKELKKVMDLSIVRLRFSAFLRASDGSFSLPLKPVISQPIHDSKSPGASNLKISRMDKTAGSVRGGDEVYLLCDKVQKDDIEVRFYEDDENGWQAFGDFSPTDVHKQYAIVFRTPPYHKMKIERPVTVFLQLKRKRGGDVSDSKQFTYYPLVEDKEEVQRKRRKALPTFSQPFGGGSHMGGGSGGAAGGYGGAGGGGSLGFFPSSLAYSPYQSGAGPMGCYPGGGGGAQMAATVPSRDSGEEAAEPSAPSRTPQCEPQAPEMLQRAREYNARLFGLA
Nuclear factor NF-kappa-B complex, sequence (Q04206 whole entry): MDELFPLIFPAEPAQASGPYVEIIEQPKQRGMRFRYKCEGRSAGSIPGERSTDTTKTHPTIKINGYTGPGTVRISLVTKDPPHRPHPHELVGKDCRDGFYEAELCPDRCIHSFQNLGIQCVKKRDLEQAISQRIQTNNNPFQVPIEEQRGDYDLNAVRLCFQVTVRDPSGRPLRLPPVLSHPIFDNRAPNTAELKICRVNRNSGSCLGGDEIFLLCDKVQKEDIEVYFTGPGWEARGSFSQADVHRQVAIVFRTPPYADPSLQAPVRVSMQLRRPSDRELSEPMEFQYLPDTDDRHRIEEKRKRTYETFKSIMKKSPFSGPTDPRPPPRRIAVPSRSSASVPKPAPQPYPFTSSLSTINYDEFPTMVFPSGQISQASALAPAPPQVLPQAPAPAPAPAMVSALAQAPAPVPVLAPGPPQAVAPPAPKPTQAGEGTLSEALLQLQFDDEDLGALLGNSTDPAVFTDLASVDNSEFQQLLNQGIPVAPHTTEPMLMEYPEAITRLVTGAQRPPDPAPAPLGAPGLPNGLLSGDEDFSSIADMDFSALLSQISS

CN1CCC[C@@H](NC(=O)Cn2nc(C(C)(C)O)n3c(cc4sc(Cl)cc43)c2=O)C1
Vdss [1]: 3.9 L/kg | half-life [2]: 1 h | bioavailability [3]: 36% | Vdss [4]: 5.5 L/kg | half-life [5]: 3.5 h | AUC/dose [6]: 712 nmol·h/L | bioavailability [7]: 63% | Vdss [8]: 4.1 L/kg | AUC/dose [9]: 2530 nmol·h/L | bioavailability [10]: 89% | solubility [11]: > 1000 µM | logD [12]: 2.3 | microsomal CLint [13]: 103 µL/min/mg | clearance [14]: 58 mL/min/kg | bioavailability [15]: 36% | IC50 [16]: > 100 µM | IC50 [17]: > 30 µM | inhibition in vivo at 100 mg/kg [18]: 98% | inhibition in vivo at 10 mg/kg [19]: 45% | concentration at 3.25 h [20]: 3670 nM | concentration at 3.25 h [21]: 1060 nM | concentration at 3.25 h [22]: 163 nM | inhibition in vivo at 50 mg/kg [23]: 90% | concentration at 3.25 h [24]: 1680 nM | concentration at 3.25 h [25]: 398 nM | solubility thermodynamic [26]: 159 µg/mL (≈ 363 µM) | IC50 (Cytochrome P450 3A4): > 25 µM | IC50 (Cytochrome P450 2D6): > 25 µM | IC50 (Cytochrome P450 2C9): > 25 µM | IC50 [27]: 6.5 µM | Drug metabolism [28]: Metabolite_Detected | Drug metabolism [29]: Metabolite_Detected | Drug metabolism [30]: Metabolite_Notdetected | Drug metabolism [31]: Metabolite_Notdetected | Drug metabolism [32]: Metabolite_Notdetected | microsomal CLint [33]: 103 µL/min/mg | microsomal CLint [34]: 100 µL/min/mg | microsomal CLint [35]: 39 µL/min/mg | microsomal CLint [36]: 37 µL/min/mg | fraction unbound [37]: 0.17 | fraction unbound [38]: 0.15 | LBF [39]: 40% | LBF [40]: 40%
